From ChEMBL document CHEMBL3885881, “DrugMatrix”

Species on record: Rattus norvegicus
Test: DrugMatrix - Regimen: Daily Repeat
Format: toxicity, organism-based, Sprague-Dawley
Set-up: regimen Daily Repeat, gender Male, age 6-8 weeks
Details: in vivo, iv, vehicle 100 % SALINE; for ABSOLUTE BASOPHIL / ABSOLUTE EOSINOPHIL / ABSOLUTE LYMPHOCYTE / ABSOLUTE MONOCYTE / ABSOLUTE SEGMENTED NEUTROPHIL / BASOPHIL / EOSINOPHIL / ERYTHROCYTE COUNT / HEMATOCRIT / HEMOGLOBIN / LEUKOCYTE COUNT / LYMPHOCYTE / MEAN CORPUSCULAR HEMOGLOBIN / MEAN CORPUSCULAR HEMOGLOBIN CONCENTRATION / MEAN CORPUSCULAR VOLUME / MONOCYTE / NEUTROPHIL / NUCLEATED RED BLOOD CELLS / PLATELET COUNT: tissue Blood; for ALANINE AMINOTRANSFERASE / ALBUMIN / ALKALINE PHOSPHATASE / ASPARTATE AMINOTRANSFERASE / BLOOD UREA NITROGEN / CARBON DIOXIDE / CHLORIDE / CHOLESTEROL / CREATINE PHOSPHOKINASE / CREATININE / GLUCOSE / LACTATE DEHYDROGENASE / LIPASE / PHOSPHORUS / POTASSIUM / SODIUM / TOTAL BILIRUBIN / TOTAL PROTEIN / URIC ACID: tissue Plasma
[1] = 0.4 mg/kg, 72 h, dose level Low, time 3 day
[2] = 0.4 mg/kg, 120 h, dose level Low, time 5 day
[3] = 4 mg/kg, 72 h, dose level High, time 3 day
[4] = 4 mg/kg, 120 h, dose level High, time 5 day

CCCCN1CCCC[C@H]1C(=O)Nc1c(C)cccc1C [LEVOBUPIVACAINE]
ABSOLUTE BASOPHIL [1]: 0 CELLS/uL | ABSOLUTE EOSINOPHIL [1]: 254.67 CELLS/uL | ABSOLUTE LYMPHOCYTE [1]: 15126.67 CELLS/uL | ABSOLUTE MONOCYTE [1]: 468.33 CELLS/uL | ABSOLUTE SEGMENTED NEUTROPHIL [1]: 1383.67 CELLS/uL | BASOPHIL [1]: 0% | EOSINOPHIL [1]: 1.33% | ERYTHROCYTE COUNT [1]: 5.99 x10E6/uL | HEMATOCRIT [1]: 37.7% | HEMOGLOBIN [1]: 13.83 G/DL | LEUKOCYTE COUNT [1]: 17.23 x10E3/uL | LYMPHOCYTE [1]: 88.33% | MEAN CORPUSCULAR HEMOGLOBIN [1]: 23.17 pg | MEAN CORPUSCULAR HEMOGLOBIN CONCENTRATION [1]: 36.7 G/DL | MEAN CORPUSCULAR VOLUME [1]: 63.07 fL | MONOCYTE [1]: 2.67% | NEUTROPHIL [1]: 7.67% | NUCLEATED RED BLOOD CELLS [1]: 0 /100WBC | PLATELET COUNT [1]: 1404.67 x10E3/uL | ALANINE AMINOTRANSFERASE [1]: 48.33 u/L | ALBUMIN [1]: 4.3 G/DL | ALKALINE PHOSPHATASE [1]: 344.33 u/L | ASPARTATE AMINOTRANSFERASE [1]: 82.67 u/L | BLOOD UREA NITROGEN [1]: 17.33 mg/dL | CARBON DIOXIDE [1]: 22 mmol/L | CHLORIDE [1]: 106 MEQ/L | CHOLESTEROL [1]: 74 mg/dL | CREATINE PHOSPHOKINASE [1]: 243 u/L | CREATININE [1]: 0.23 mg/dL | GLUCOSE [1]: 167.67 mg/dL | LACTATE DEHYDROGENASE [1]: 317 u/L | LIPASE [1]: 9 u/L | PHOSPHORUS [1]: 13.87 mg/dL | POTASSIUM [1]: 6.74 MEQ/L | SODIUM [1]: 148.9 MEQ/L | TOTAL BILIRUBIN [1]: 0.2 mg/dL | TOTAL PROTEIN [1]: 6.3 G/DL | URIC ACID [1]: 2.5 mg/dL | ABSOLUTE BASOPHIL [2]: 0 CELLS/uL | ABSOLUTE EOSINOPHIL [2]: 140.33 CELLS/uL | ABSOLUTE LYMPHOCYTE [2]: 13101.33 CELLS/uL | ABSOLUTE MONOCYTE [2]: 294.33 CELLS/uL | ABSOLUTE SEGMENTED NEUTROPHIL [2]: 1864 CELLS/uL | BASOPHIL [2]: 0% | EOSINOPHIL [2]: 1% | ERYTHROCYTE COUNT [2]: 5.93 x10E6/uL | HEMATOCRIT [2]: 37% | HEMOGLOBIN [2]: 14 G/DL | LEUKOCYTE COUNT [2]: 15.4 x10E3/uL | LYMPHOCYTE [2]: 85.33% | MEAN CORPUSCULAR HEMOGLOBIN [2]: 23.6 pg | MEAN CORPUSCULAR HEMOGLOBIN CONCENTRATION [2]: 37.83 G/DL | MEAN CORPUSCULAR VOLUME [2]: 62.47 fL | MONOCYTE [2]: 2% | NEUTROPHIL [2]: 11.67% | NUCLEATED RED BLOOD CELLS [2]: 0.33 /100WBC | PLATELET COUNT [2]: 1119 x10E3/uL | ALANINE AMINOTRANSFERASE [2]: 67.67 u/L | ALBUMIN [2]: 4.13 G/DL | ALKALINE PHOSPHATASE [2]: 394 u/L | ASPARTATE AMINOTRANSFERASE [2]: 122.67 u/L | BLOOD UREA NITROGEN [2]: 20 mg/dL | CARBON DIOXIDE [2]: 24.67 mmol/L | CHLORIDE [2]: 107.33 MEQ/L | CHOLESTEROL [2]: 54.33 mg/dL | CREATINE PHOSPHOKINASE [2]: 430.33 u/L | CREATININE [2]: 0.2 mg/dL | GLUCOSE [2]: 154.33 mg/dL | LACTATE DEHYDROGENASE [2]: 798.67 u/L | LIPASE [2]: 8.67 u/L | PHOSPHORUS [2]: 13.03 mg/dL | POTASSIUM [2]: 5.58 MEQ/L | SODIUM [2]: 148.47 MEQ/L | TOTAL BILIRUBIN [2]: 0.1 mg/dL | TOTAL PROTEIN [2]: 6.2 G/DL | URIC ACID [2]: 1.57 mg/dL | ABSOLUTE BASOPHIL [3]: 0 CELLS/uL | ABSOLUTE EOSINOPHIL [3]: 0 CELLS/uL | ABSOLUTE LYMPHOCYTE [3]: 11600.33 CELLS/uL | ABSOLUTE MONOCYTE [3]: 405 CELLS/uL | ABSOLUTE SEGMENTED NEUTROPHIL [3]: 1828 CELLS/uL | BASOPHIL [3]: 0% | EOSINOPHIL [3]: 0% | ERYTHROCYTE COUNT [3]: 5.58 x10E6/uL | HEMATOCRIT [3]: 35.27% | HEMOGLOBIN [3]: 13.37 G/DL | LEUKOCYTE COUNT [3]: 13.83 x10E3/uL | LYMPHOCYTE [3]: 83.67% | MEAN CORPUSCULAR HEMOGLOBIN [3]: 23.93 pg | MEAN CORPUSCULAR HEMOGLOBIN CONCENTRATION [3]: 37.9 G/DL | MEAN CORPUSCULAR VOLUME [3]: 63.2 fL | MONOCYTE [3]: 3% | NEUTROPHIL [3]: 13.33% | NUCLEATED RED BLOOD CELLS [3]: 0.33 /100WBC | PLATELET COUNT [3]: 1307 x10E3/uL | ALANINE AMINOTRANSFERASE [3]: 41.33 u/L | ALBUMIN [3]: 4.27 G/DL | ALKALINE PHOSPHATASE [3]: 430.67 u/L | ASPARTATE AMINOTRANSFERASE [3]: 83.33 u/L | BLOOD UREA NITROGEN [3]: 15.67 mg/dL | CARBON DIOXIDE [3]: 24.67 mmol/L | CHLORIDE [3]: 105.67 MEQ/L | CHOLESTEROL [3]: 62 mg/dL | CREATINE PHOSPHOKINASE [3]: 275.67 u/L | CREATININE [3]: 0.23 mg/dL | GLUCOSE [3]: 152 mg/dL | LACTATE DEHYDROGENASE [3]: 383 u/L | LIPASE [3]: 8.67 u/L | PHOSPHORUS [3]: 13.3 mg/dL | POTASSIUM [3]: 6.04 MEQ/L | SODIUM [3]: 146.8 MEQ/L | TOTAL BILIRUBIN [3]: 0.2 mg/dL | TOTAL PROTEIN [3]: 5.77 G/DL | URIC ACID [3]: 1.43 mg/dL | ABSOLUTE BASOPHIL [4]: 0 CELLS/uL | ABSOLUTE EOSINOPHIL [4]: 0 CELLS/uL | ABSOLUTE LYMPHOCYTE [4]: 14035 CELLS/uL | ABSOLUTE MONOCYTE [4]: 328 CELLS/uL | ABSOLUTE SEGMENTED NEUTROPHIL [4]: 2037 CELLS/uL | BASOPHIL [4]: 0% | EOSINOPHIL [4]: 0% | ERYTHROCYTE COUNT [4]: 5.6 x10E6/uL | HEMATOCRIT [4]: 34.2% | HEMOGLOBIN [4]: 13.05 G/DL | LEUKOCYTE COUNT [4]: 16.4 x10E3/uL | LYMPHOCYTE [4]: 85.5% | MEAN CORPUSCULAR HEMOGLOBIN [4]: 23.3 pg | MEAN CORPUSCULAR HEMOGLOBIN CONCENTRATION [4]: 38.15 G/DL | MEAN CORPUSCULAR VOLUME [4]: 61.1 fL | MONOCYTE [4]: 2% | NEUTROPHIL [4]: 12.5% | NUCLEATED RED BLOOD CELLS [4]: 0.5 /100WBC | PLATELET COUNT [4]: 1167 x10E3/uL | ALANINE AMINOTRANSFERASE [4]: 38 u/L | ALBUMIN [4]: 4.35 G/DL | ALKALINE PHOSPHATASE [4]: 311 u/L | ASPARTATE AMINOTRANSFERASE [4]: 72.5 u/L | BLOOD UREA NITROGEN [4]: 18 mg/dL | CARBON DIOXIDE [4]: 26.5 mmol/L | CHLORIDE [4]: 103 MEQ/L | CHOLESTEROL [4]: 57.5 mg/dL | CREATINE PHOSPHOKINASE [4]: 325.5 u/L | CREATININE [4]: 0.17 mg/dL | GLUCOSE [4]: 150.5 mg/dL | LACTATE DEHYDROGENASE [4]: 321.5 u/L | LIPASE [4]: 8 u/L | PHOSPHORUS [4]: 13.4 mg/dL | POTASSIUM [4]: 6.04 MEQ/L | SODIUM [4]: 146.65 MEQ/L | TOTAL BILIRUBIN [4]: 0.1 mg/dL | TOTAL PROTEIN [4]: 6.05 G/DL | URIC ACID [4]: 1.5 mg/dL
